How the values were obtained:
[1] = tested on: primary human total T-cells; experiment: Primary human total T-cell activation: IL-2 secretion, Biological Example 2; format: cell-based; details: 48 hours, fold change over baseline; for fold induction at 1 µM: inhibitor 1 μM
[2] = tested on: primary human total T-cells; experiment: Primary human total T-cell activation: CD25 surface staining, Biological Example 2; format: cell-based; details: 48 hours, fold change over baseline; for fold induction at 1 µM: inhibitor 1 μM
Cbl-b [3] = target: T1, Cbl-b (Homo sapiens (Human), UniProt Q13191); experiment: Cbl-b displacement assay (Cbl-b inhibition assay), Biological Example 8; format: binding; details: 0.125 nM Cbl-b final concentration (Low); Table 8-1; read-out: Cbl-b IC50 (Low)
T1 sequence (Q13191 36-427): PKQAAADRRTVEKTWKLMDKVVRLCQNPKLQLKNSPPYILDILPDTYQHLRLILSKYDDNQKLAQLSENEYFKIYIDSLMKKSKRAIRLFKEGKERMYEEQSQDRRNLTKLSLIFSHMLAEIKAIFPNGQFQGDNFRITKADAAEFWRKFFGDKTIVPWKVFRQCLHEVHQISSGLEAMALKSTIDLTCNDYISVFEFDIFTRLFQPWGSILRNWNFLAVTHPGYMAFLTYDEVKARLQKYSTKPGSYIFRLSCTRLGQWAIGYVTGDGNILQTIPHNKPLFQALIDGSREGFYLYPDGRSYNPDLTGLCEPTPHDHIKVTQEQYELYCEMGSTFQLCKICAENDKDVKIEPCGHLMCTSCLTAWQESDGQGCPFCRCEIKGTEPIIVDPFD
In short: (§1)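 Biotinylated Avitag-Cbl-b (residues 36-427) at 0.5 nM ("High") or 0.125 nM ("Low") final was preincubated 1 h at room temperature with compound (1% DMSO) in 20 mM HEPES pH 7.5, 150 mM NaCl, 0.01% Triton X-100, 0.01% BSA, 0.5 mM TCEP. Then 150 nM BODIPY FL inhibitor probe (~EC40) plus 2 nM streptavidin-terbium, 1 h; TR-FRET 520/620 read, IC50 derived.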

[4] = tested on: primary human total T-cells; experiment: Primary human total T-cell activation: IL-2 secretion, Biological Example 9; format: cell-based; details: 48 hours, fold change over baseline; for fold induction at 1 µM: inhibitor 1 μM
[5] = tested on: primary human total T-cells; experiment: Primary human total T-cell activation: CD25 surface staining, Biological Example 9; format: cell-based; details: 48 hours, fold change over baseline; for fold induction at 1 µM: inhibitor 1 μM
Cbl-b [6] = target: T1, Cbl-b; experiment: Cbl-b displacement assay (Cbl-b inhibition assay), Biological Example 12; format: binding; details: 0.125 nM Cbl-b final concentration (Low); Table 12-1; read-out: Cbl-b IC50 (Low)
In short: as §1

[7] = tested on: primary human total T-cells; experiment: Primary human total T-cell activation: IL-2 secretion, Biological Example 13; format: cell-based; details: 48 hours, fold change over baseline; for fold induction at 1 µM: inhibitor 1 μM
[8] = tested on: primary human total T-cells; experiment: Primary human total T-cell activation: CD25 surface staining, Biological Example 13; format: cell-based; details: 48 hours, fold change over baseline; for fold induction at 1 µM: inhibitor 1 μM
TC-1 cells = experiment: Compound 8 with HPV16 vaccine in TC-1 syngeneic mouse model, Biological Example 16; format: in vivo; details: TC-1 tumor-bearing mice
Method: Mice were implanted with 50,000 TC-1 cells/mouse subcutaneously into the right flank (at Day Zero (D0)). Thirteen days later (D13), when tumors measured approximately 50-100 mm^3, mice from appropriate groups (10 mice per group) were injected with HPV16 vaccine (s.c., total 2 doses, at D13 and Day 20 (D20)). […] Mice were euthanized when tumor exceeded 1500-2000 mm^3, according to IACUC guidelines. Survival was compared using GraphPad Prism using log-rank (Mantel-Cox) test. **=p<0.005 of treatment vs. Vehicle+Vaccine control group at Day 61.
TC-1 cells were derived by stable transfection of mouse lung epithelial cells with human papillomavirus strain 16 (HPV16) early proteins 6 and 7 (E6 and E7) and activated h-ras oncogene. Cells were obtained from Dr. T-C Wu (Johns Hopkins University). (Lin K Y, Guarnieri F G, Staveley-O'Carroll K F, Levitsky H I, August J T, Pardoll D M, et al. Treatment of established tumors with a novel vaccine that enhances major histocompatibility class II presentation of tumor antigen. Cancer Res 1996; 56:21-6).
The HPV16 vaccine was prepared as follows: The CTL epitope from HPV16 E749-57 (9 amino acid (aa) peptide, […], 100 μg/mouse, SEQ ID NO: 2) was mixed with synthetic T helper epitope PADRE (13 aa peptide, aK-Cha-[…]a, SEQ ID NO: 3, where “a” is D alanine and Cha is L-cyclohexylalanine, 20 ug/mouse) and with QuilA adjuvant (20 ug/mouse).

[9] = anti-CD3/anti-CD28 co-stimulation, inhibitor 0.3 μM
[10] = anti-CD3/anti-CD28 co-stimulation, inhibitor 0.3 μM, Table 9-1
[11] = anti-CD3 alone, inhibitor 3 μM, Table 9-1
[12] = anti-CD3/anti-CD28 co-stimulation, inhibitor 0.3 μM, Table 13-1
[13] = anti-CD3 alone, inhibitor 3 μM, Table 13-1

With `C[C@@H]1CN(Cc2cc3c(c(C(F)(F)F)c2)CN(c2cccc(C4(Cc5nncn5C)COC4)c2)C3=O)CCC1(F)F` [Compound 8, (R)-6-((4,4-difluoro-3-methylpiperidin-1-yl)methyl)-2-(3-(3-((4-methyl-4H-1,2,4-triazol-3-yl)methyl)oxetan-3-yl)phenyl)-4-(trifluoromethyl)isoindolin-1-one] the fold induction at 0.3 µM [1, 9] was > 15, the fold induction at 1 µM ([1]; anti-CD3/anti-CD28 co-stimulation, read-out: IL-2 secretion CD3/CD28 1 μM) was > 15 and the fold induction at 1 µM ([1]; anti-CD3 alone, read-out: IL-2 secretion CD3 1 μM) was 0.34 to 0.66. It also gave a fold induction at 3 µM ([1]; anti-CD3 alone, inhibitor 3 μM) of 0.34 to 0.66, a fold induction at 0.3 µM [2, 9] of 1.25 to 1.39 and a fold induction at 1 µM ([2]; anti-CD3/anti-CD28 co-stimulation, read-out: CD25 staining CD3/CD28 1 μM) of 1.25 to 1.39. For the same compound, the fold induction at 1 µM ([2]; anti-CD3 alone, read-out: CD25 staining CD3 1 μM) was > 1.14, the fold induction at 3 µM ([2]; anti-CD3 alone, inhibitor 3 μM) was > 1.14 and the IC50 (Cbl-b [3]) was < 1 nM. The fold induction at 0.3 µM [4, 10] was > 15, the fold induction at 1 µM ([4]; anti-CD3/anti-CD28 co-stimulation, Table 9-1, read-out: IL-2 secretion CD3/CD28 1 μM) was > 15 and the fold induction at 1 µM ([4]; anti-CD3 alone, Table 9-1, read-out: IL-2 secretion CD3 1 μM) was > 0.66. For the same compound, the fold induction at 3 µM [4, 11] was > 0.66, the fold induction at 0.3 µM [5, 10] was > 1.39 and the fold induction at 1 µM ([5]; anti-CD3/anti-CD28 co-stimulation, Table 9-1, read-out: CD25 staining CD3/CD28 1 μM) was > 1.39. For the same compound, the fold induction at 1 µM ([5]; anti-CD3 alone, Table 9-1, read-out: CD25 staining CD3 1 μM) was > 1.14, the fold induction at 3 µM [5, 11] was > 1.14 and the IC50 (Cbl-b [6]) was < 1 nM. The fold induction at 0.3 µM [7, 12] was > 15, the fold induction at 1 µM ([7]; anti-CD3/anti-CD28 co-stimulation, Table 13-1, read-out: IL-2 secretion CD3/CD28 1 μM) was > 15 and the fold induction at 1 µM ([7]; anti-CD3 alone, Table 13-1, read-out: IL-2 secretion CD3 1 μM) was > 0.66. The fold induction at 3 µM [7, 13] was > 0.66, the fold induction at 0.3 µM [8, 12] was > 1.39 and the fold induction at 1 µM ([8]; anti-CD3/anti-CD28 co-stimulation, Table 13-1, read-out: CD25 staining CD3/CD28 1 μM) was > 1.39. For the same compound, the fold induction at 1 µM ([8]; anti-CD3 alone, Table 13-1, read-out: CD25 staining CD3 1 μM) was > 1.14, the fold induction at 3 µM [8, 13] was > 1.14 and the tumor growth (TC-1 cells; Compound 8 orally D13 to D35, HPV16 vaccine s.c. D13 and D20) was “significant slowdown of tumor progression”. The survival (TC-1 cells; Compound 8 orally D13 to D35 with HPV16 vaccine s.c. D13 and D20, vs. Vehicle+Vaccine) was “prolonged survival”.

Reference: patent publication US11464802B2, “3-substituted piperidine compounds for Cbl-b inhibition, and use thereof” (Nurix Therapeutics, Inc., priority 2019, dated 2022)
